The values that follow come from patent US8961986B2, “Peptide composition” (Apitope Technology (Bristol) Limited, priority 2000, dated 2015).

“Also recorded” adds a separate entry of the source.

For assay [1], the system named is experimental autoimmune encephalomyelitis (EAE). The conditions noted are these: cited from earlier work.
The subject of assay [2] is 81-111-responsive T-cell line and sub-lines. Nature of the assay: Reactivity of T cell lines and clones from peptide-primed mice to MBP 81-111 region peptides. It is filed as cell-based. As to conditions: TCL specific for 89-94, 92-98, 95-101. The method, then:
In order to investigate T cell reactivity to the 81-111 region of MBP, lymph node cells from mice primed with 81-111 are stimulated with 81-111 in vitro and these cells are tested with a panel of overlapping 10-mer peptides with two residue shifts covering the 81-111 region (namely: 81-90, 83-92, 85-94, 87-96, 89-98, 91-100, 93-102, 95-104, 97-106, 99-108 and 101-111). The response pattern to peptides covering the 89-101 show stimulatory capacity for 5 adjacent peptides (N terminal 87-96 through to 95-104) reflecting the presence of at least two (and perhaps three) distinct epitopes.
In order to investigate this region further, three sub-lines are generated from the original 81-111-responsive T-cell line and these are retested with a panel of overlapping 10-mer peptides with one residue shift covering the 84-106 region. The results reveal the existence of three distinct but overlapping T cell epitopes within the 89-101 sequence: 89-94, 92-98 and 95-101 (see FIG. 14).

Another assay deals with T1, I-A^S (Mus musculus, UniProt P06345+P14437).
T1 sequence (P14437 1-233): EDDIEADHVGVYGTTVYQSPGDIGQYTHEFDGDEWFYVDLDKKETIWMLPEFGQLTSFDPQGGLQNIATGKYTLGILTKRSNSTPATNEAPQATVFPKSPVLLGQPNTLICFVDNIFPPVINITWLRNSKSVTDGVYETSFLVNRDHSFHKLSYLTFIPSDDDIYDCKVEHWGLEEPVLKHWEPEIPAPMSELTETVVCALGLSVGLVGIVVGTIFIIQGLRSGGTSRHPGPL
T1 sequence (P06345 28-263): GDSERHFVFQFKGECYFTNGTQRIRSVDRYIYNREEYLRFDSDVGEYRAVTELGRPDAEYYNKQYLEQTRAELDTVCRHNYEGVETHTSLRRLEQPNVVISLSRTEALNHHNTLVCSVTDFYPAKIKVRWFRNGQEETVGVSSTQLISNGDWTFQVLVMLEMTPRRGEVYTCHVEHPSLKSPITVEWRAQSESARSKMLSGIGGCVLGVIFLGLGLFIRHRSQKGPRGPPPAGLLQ
The conditions noted are these: cited from earlier work.

The test system of assay [3] is draining lymph node cells. Nature of the assay: Tolerance experiments with 89-101 and 87-96: lymph node cell recall proliferation. It is filed as in vivo, Mice. Here is the method: In order to test this possibility tolerance experiments are performed with the 89-101 and 87-96 peptides (FIGS. 15a and b).
Mice received 200 μg of peptide in PBS or PBS alone intraperitoneally on days −8, −6 and −4 prior to 100 μg of peptide in complete Freunds adjuvant on day 0. After 10 days, draining lymph node cells (6×10^5 per well) were cultured in X-Vivo 15 medium supplemented with 5×10^−5M 2-mercaptoethanol and […] L-glutamine with or without antigen for 72 hours. Cultures were pulsed for the final 16 hours with 0.5 μCi ^3H.thymidine and incorporation measured using a liquid scintillation counter. Results are expressed as means counts per minute for triplicate cultures.

The next assay concerns the target T2, HLA-DR2a (Homo sapiens, UniProt P01903+Q30154).
T2 construct: expressed in transfected cells; host or cells: L-cells
The assay is described as follows: Antigen presentation assay, HLA-DR2a transfected L-cells. The assay is classed as cell-based. From the text: (§1) MBP peptides 30-44, 130-144 and 139-153 were synthesized using L-amino acids and standard F-moc chemistry on an Abimed AMS 422 multiple peptide synthesiser.
(§2) L-cells transfected with either HLA-DQ6, HLA-DR2a or HLA-DR2b, or Mgar cells (EACC, Porton Down, UK) which express HLA-DQ, DP and DR were used as APCs.
(§3) T-cell clones MS 49:D3 and MS17:A2 were generated from MS patients and clone N5:19 was generated from a normal individual. All three clones were DR2 positive.
(§4) Antigen presenting cells were incubated with the various concentrations of peptide and the appropriate T-cells. Proliferation, and therefore activation, of the T-cells was measured by [^3H]-Thymidine incorporation, and expressed as the stimulation index (SI=corrected counts per minute (ccpm) culture containing peptide/ccpm culture without peptide).

Another assay has as its target T3, HLA-DR2b (Homo sapiens, UniProt P01903+P01911).
T3 construct: expressed in transfected cells; host or cells: L-cells
Nature of the assay: Antigen presentation assay, HLA-DR2b transfected L-cells. It is filed as cell-based.
Text: as §1, §2, §3, §4

T3 sequence (P01903 26-254): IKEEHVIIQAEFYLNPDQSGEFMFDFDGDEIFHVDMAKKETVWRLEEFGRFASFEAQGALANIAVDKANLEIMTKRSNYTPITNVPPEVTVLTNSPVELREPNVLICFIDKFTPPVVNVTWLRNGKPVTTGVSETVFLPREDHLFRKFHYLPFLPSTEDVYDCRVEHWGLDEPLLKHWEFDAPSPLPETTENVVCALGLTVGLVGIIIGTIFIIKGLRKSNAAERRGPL
T3 sequence (P01911 30-266): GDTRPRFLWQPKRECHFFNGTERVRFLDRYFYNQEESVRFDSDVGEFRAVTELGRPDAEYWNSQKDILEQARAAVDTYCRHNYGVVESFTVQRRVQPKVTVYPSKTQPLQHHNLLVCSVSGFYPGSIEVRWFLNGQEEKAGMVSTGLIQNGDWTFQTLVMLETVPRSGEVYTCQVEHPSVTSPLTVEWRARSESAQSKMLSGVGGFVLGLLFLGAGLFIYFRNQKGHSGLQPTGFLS
T2 sequence (P01903 26-254): as the sequence (P01903 26-254) above
T2 sequence (Q30154 30-266): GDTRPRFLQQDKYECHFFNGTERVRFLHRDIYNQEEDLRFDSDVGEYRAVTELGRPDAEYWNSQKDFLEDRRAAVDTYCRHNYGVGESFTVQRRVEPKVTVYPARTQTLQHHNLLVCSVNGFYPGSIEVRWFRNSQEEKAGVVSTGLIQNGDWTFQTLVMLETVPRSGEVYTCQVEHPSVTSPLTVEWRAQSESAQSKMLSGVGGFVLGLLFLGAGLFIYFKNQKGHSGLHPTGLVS

Consider “MBP 89-101: myelin basic protein (MBP) peptide 89-101, immunodominant antigen, not tolerogenic (PHLIRLFSRDAPG; UniProt P02686 89-101, looked up, fragment)”, for which, in assay [1] (Anderton and Wraith (1998)), the “inducing tolerance when administered in solution” value is “ineffective at inducing tolerance”. Besides, the “prevention of / protection against EAE by peptide in soluble form” value in assay [1] (EAE induced with whole myelin or the 89-101 peptide) is “does not prevent; also recorded: fails to protect against EAE”. The “immunogenicity: priming for T cell reactivity and induction of EAE” value in assay [1] (after immunisation) was “very effective immunogen”. In addition, the “response of the three epitope-specific T cell lines (TCL) to the peptide” value in assay [2] is on record as “All three TCL respond”. Also, the “binding affinity for I-A^S” value with I-A^S is reported as “relatively high affinity”. Besides, the “effect of peptide as tolerogen on recall responses after priming with 87-96” value in assay [3] (200 μg i.p. days -8, -6, -4, priming 87-96 in CFA day 0, lymph node cells day 10) was “failed to inhibit recall responses to either 87-96 or 89-101”. Moreover, the “in vitro recall response after priming with 87-96” value in assay [3] (PBS pre-treated mice, lymph node cells) is “weaker response”.

On to “MBP 139-153: MBP peptide 139-153 synthesized using L-amino acids (RPSQRHGSKYLATAS)”, for which, in the assay with HLA-DR2a, the “proliferation of N5:19 T-cell clone, HLA-DR2a transfected L-cells” value is “stimulated proliferation”. The “proliferation of N5:19 T-cell clone, HLA-DR2b transfected L-cells” value in the assay with HLA-DR2b is reported as “not”.
